Experimental findings from US8067628B2 (priority 2008, dated 2011) are described below.

Read-outs that look alike come from different tables or passages of the source.

Data set [1] can be described thus: NO-donor activity, sensor electrode amiNO-700 in water. Particulars: aerobic aqueous solutions; for spontaneous NO generation: 25° C., no chemo-, photo- or enzymatic activation; for duration of NO release: compared with binuclear nitrosyl iron complexes with aromatic thiolyls. As to the method:
The sensor electrode “amiNO-700” of the system “inNO Nitric Oxide Measuring System” (Innovative Instruments, Inc., Tampa, Fla., USA) was used to determine NO generated by the complexes I and II in water. NO concentration was recorded for ˜1,600 seconds (with a step of 0.2 seconds) with concentration of NO donor (0.1 μmol). A standard aqueous solution of NaNO2 (100 μmol) to which a mixture of 0.12M KCl and 2 ml 1M H2SO4 in 18 ml water was added was used to calibrate the electrochemical sensor. All the experiments were carried out in aerobic solutions at temperature 25° C. pH of solutions was measured using the membrane pH-meter “HI 8314” (HANNA Instruments, Germany).

Data set [2] concerns line K562 human erythroblastic leukemia and A549 non-small cell lung cancer cells. Briefly: Cytotoxicity, MTT-test on human cancer cells in vitro. The data set is classed as cell-based. How it is done:
Cells of line K562 human erythroblastic leukemia and A549 non-small cell lung cancer were used as the study object. The cells were grown in the RMPI1640 medium comprising 10% fetal bovine serum at 37° C., 5% CO2 and 100% humidity.
The cytotoxic activity testing was carried out by the standard MTT-test using 96-well plates. Seeding density of cells was 5,000 cells in a well. The cells K562 and A549 were incubated with the complexes I and II at concentrations 1 μM, 10 μM or 100 μM for 72 hours.
MTT-test is based on the capability of dehydrogenases of live cells to reduce unstained MTT-reagent to the blue crystals of formazan crystals soluble in dimethylsulfoxide (DMSO). The optic absorption of stained DMSO solutions was measured on an automated counter. The cytotoxic activity was assessed in percent by the survival of the cells and calculated according to the formula: (mean value of optic absorption in test samples/mean absorption in the control)×100. IC50 was determined by a “dose-effect” curve.
(Tetrazolium dyes change colour on reduction, which living cells bring about.)

The format of data set [3] is physicochemical. How it is done:
Distilled water used in the synthesis required preliminary preparation to remove oxygen dissolved therein. To this end, a flow of inert gas (argon or nitrogen) was passed through a flask with distilled water for 30 minutes. 0.84 grams (3 mmol) iron sulphate heptahydrate were dissolved in 12 ml prepared distilled water. To this solution, 0.40 g (3.5 mmol) cystamine hydrochloride dissolved in 8 ml water was added to this solution. Nitrogen monoxide flow prepared according to the technique [Yu. V. Karyakin and I. I. Angeov. Chistiye khimicheskiye veshchestva (Pure chemical substances), Moscow: Khimiya publishing house, 1974, 23] was passed through the prepared solution for 1 to 1.5 hours at ˜40° C. until crystals were formed in the solution. Reaction mixture was then allowed to stand at 6 to 8° C. for 15 to 20 hrs; a formed brown-red fine crystalline precipitate was filtered off and dried in air for 24 hours. Yield was […] (16.5%).
Di-μ-penicillamine-tetranitrosyl di-iron sulphate (Fe2S3N6C10H32O17) (II) was prepared by reacting iron sulphate (II) with D-penicillamine in a ratio 1:3. The reaction was carried out using a standard vacuum line and Shlenk's technology under nitrogen at room temperature. Oxygen was preliminary removed from water using the method of triplicate freezing and pumping off under vacuum. […]

Data set [4] relates to line K562 cells of human erythroblast leukemia. The data set can be described thus: Apoptotic activity, caspase-3/-7 FLICA (FAM-DEVD-FMK) flow cytometry. Type of data set: cell-based. Particulars: incubation 75 hours. How it is done:
A method for determining activity of caspases is based on the use of fluorochromic inhibitors of caspases (FLICA). These inhibitors are capable of penetrating into a cell while not being cytotoxic. Within the cell FLICA-inhibitor is covalently bound to active caspase.
The freeze-dried reagent FAM-DEVD-FMK for determining caspase-3 and caspase-7 was experimentally used to test apoptotic cells. When FAM-DEVD-FMK is added to a cellular population of cells, it penetrates into each cell wherein covalent binding thereof to a large subunit of an active caspase heterodimer occurs and thus, it inhibits enzymatic activity. The reagent covalently bound to the enzyme remains inside the cell. […]
Upon termination of incubation term, the cells were centrifuged for 5 minutes at 1,200 rpm at room temperature (RT). […] Sample aliquots of induced and non-induced cells were taken, 2 μl reagent propidium iodide (PI) ready for use were added and the mixture was incubated at RT for 10 minutes to stain dead cells.
Fluorescence of all cell specimens was analyzed on a liquid citometer Backton Dikenson Fascaliber using a laser with 488 nm wavelength. […] In a left lower quadrant live cells were determined; in a right lower quadrant positive FLICA cells (FLICA+) were determined; in a left upper quadrant stained PI cells were determined, and in a right upper quadrant stained PI and FLICA+ cells were determined. […]
For orientation: A flow cytometer gives signals particle by particle.

“Di-μ-penicillamine-tetranitrosyl di-iron sulphate [complex II]”: in data set [1], the “spontaneous NO generation” value is on record as “generate NO in aerobic aqueous solutions” and the “duration of NO release” value is “prolonged release of NQ”. For the same substance, the IC50 (commonly the concentration that inhibits the measured activity by half) in data set [2] (MTT-test, 72 hours, K562 and A549 cells (cell line of the value not stated), read-out: IC50 (cytotoxic activity, cell survival)) was 100 µM. Further, the “stability of product in the absence of inert atmosphere” value in data set [3] is “stable in the absence of inert atmosphere for a long time”.
“Di-μ-cystamine tetranitrosyl di-iron sulphate [complex I]”: in data set [1], the “spontaneous NO generation” value is “generate NO in aerobic aqueous solutions” and the “duration of NO release” value was “prolonged release of NQ”. For the same substance, in data set [2], the IC50 worked out at 50 µM. Besides, the “stability of polycrystals in air” value in data set [3] was “remain stable in air at room temperature for a rather long time”. The substance also displayed a cells in apoptosis in data set [4] of 77%. Also, the “initiation of caspase 3 and 7 activity / induction of apoptosis” value in data set [4] (concentration 50 μl) was “exhibited capability of initiating caspase 3 and 7 activity”.
